Converted amounts (≈) assume the structure as drawn.

One data set has as its system MES-SA/Dx5. Kind of data set: Selectivity index, ratio of EC50 for inhibition of P-gp (unknown origin) expressed in MES-SA/DX5 cells assessed as increase in paclitaxel-induced cytotoxicity in absence of compound to EC50 for inhibition of P-gp (unknown origin) expressed in MES-SA/DX5 cells assessed as increase in paclitaxel-induced cytotoxicity in presence of compound. Particulars: Homo sapiens. It is filed as cell-based.

A short description of data set [1]: Apparent permeability from apical to basolateral side in MDCK-II cells after 120 mins by LC-MS/MS analysis. Particulars: dog. It is filed as ADME, cell-based, Canis lupus familiaris.
The nature of data set [2]: Aqueous solubility of compound at pH 5.5. It is filed as physicochemical. Particulars: aqueous solution.
The target of data set [3] is T1, Broad substrate specificity ATP-binding cassette transporter ABCG2 (Homo sapiens, UniProt Q9UNQ0).
T1 sequence (Q9UNQ0 whole entry): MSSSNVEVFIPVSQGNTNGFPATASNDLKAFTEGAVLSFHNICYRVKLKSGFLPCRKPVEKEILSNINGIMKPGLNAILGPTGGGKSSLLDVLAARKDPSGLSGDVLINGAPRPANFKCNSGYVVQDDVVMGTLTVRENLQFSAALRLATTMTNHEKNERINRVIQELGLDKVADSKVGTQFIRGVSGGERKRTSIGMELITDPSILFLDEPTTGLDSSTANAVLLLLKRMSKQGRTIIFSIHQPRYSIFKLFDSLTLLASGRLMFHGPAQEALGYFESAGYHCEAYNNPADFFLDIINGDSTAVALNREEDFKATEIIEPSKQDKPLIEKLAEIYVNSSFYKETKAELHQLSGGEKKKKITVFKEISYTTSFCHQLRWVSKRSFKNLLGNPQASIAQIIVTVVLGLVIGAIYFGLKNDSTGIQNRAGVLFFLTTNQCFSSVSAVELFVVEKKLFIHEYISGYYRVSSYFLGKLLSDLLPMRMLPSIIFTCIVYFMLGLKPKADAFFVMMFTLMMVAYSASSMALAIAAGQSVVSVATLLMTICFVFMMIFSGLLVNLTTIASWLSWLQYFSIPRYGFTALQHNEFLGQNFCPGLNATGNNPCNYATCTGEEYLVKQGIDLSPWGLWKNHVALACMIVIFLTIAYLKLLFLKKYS
Kind of data set: Inhibition of sulfasalazine-stimulated BCRP ATP ase activity (unknown origin).

In data set [4] the target is ATP-dependent translocase ABCB1 (Homo sapiens, UniProt P08183). Kind of data set: Inhibition of paclitaxel stimulated- P-gp ATPase activity (unknown origin).
Chain of ATP-dependent translocase ABCB1 (P08183 whole entry): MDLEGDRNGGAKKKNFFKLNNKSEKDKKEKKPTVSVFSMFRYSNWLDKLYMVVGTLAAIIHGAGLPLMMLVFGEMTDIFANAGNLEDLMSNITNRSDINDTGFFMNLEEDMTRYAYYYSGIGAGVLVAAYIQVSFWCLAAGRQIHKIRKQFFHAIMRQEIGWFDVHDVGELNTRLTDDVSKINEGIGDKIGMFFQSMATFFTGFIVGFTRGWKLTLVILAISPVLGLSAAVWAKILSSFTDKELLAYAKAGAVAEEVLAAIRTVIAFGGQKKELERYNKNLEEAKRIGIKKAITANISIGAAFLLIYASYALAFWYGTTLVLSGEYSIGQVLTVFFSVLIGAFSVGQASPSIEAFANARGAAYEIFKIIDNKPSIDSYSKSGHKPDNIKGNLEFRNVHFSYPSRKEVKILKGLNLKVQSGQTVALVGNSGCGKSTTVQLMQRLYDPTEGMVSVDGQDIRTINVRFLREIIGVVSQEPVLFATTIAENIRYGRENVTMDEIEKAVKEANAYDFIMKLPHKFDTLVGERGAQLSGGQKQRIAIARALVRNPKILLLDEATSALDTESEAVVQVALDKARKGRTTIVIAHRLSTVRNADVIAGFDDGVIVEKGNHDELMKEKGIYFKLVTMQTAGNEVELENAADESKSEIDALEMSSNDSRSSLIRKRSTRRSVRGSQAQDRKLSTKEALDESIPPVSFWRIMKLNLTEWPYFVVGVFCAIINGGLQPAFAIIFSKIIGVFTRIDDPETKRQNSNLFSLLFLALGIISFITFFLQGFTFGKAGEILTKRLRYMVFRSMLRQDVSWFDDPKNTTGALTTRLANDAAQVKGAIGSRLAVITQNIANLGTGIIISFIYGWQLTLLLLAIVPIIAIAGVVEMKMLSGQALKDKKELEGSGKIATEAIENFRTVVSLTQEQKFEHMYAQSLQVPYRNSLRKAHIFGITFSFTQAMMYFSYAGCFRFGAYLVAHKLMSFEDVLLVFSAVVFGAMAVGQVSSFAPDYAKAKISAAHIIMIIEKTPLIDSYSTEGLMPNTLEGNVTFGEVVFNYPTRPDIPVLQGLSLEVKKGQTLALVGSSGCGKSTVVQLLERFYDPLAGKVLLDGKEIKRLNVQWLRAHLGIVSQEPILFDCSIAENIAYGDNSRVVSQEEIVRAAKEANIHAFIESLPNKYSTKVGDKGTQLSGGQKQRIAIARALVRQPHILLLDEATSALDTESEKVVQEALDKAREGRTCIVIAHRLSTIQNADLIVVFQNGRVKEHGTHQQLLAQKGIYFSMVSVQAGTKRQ
Data set [5] is described as follows: Aqueous solubility of compound at neutral pH. Particulars: aqueous solution. It is filed as physicochemical.

For `COc1cc2c(cc1OC)CN(CCc1ccc(-n3nnc(-c4cc(OC)c(OC)cc4NC(=O)c4ccccc4)n3)cc1)CC2`, the Ratio EC50 in the data set on MES-SA/Dx5 turned out to be 3.4. Still for that read-out and setting: as for `COc1cc2c(cc1OC)CN(CCc1ccc(-n3nnc(-c4cc(OC)c(OC)cc4NC(=O)c4cc5ccccc5cn4)n3)cc1)CC2`, the figure is 3.5; as for `COc1cc2c(cc1OC)CN(CCc1ccc(-n3nnc(-c4cc(OC)c(OC)cc4NC(=O)c4cnccn4)n3)cc1)CC2`, 3; as for `COc1cc2c(cc1OC)CN(CCc1ccc(-n3nnc(-c4cc(OC)c(OC)cc4NC(=O)c4nccc5ccccc45)n3)cc1)CC2`, 1.8. The same measure, in the same setting: with `COc1cc2c(cc1OC)CN(CCc1ccc(-n3nnc(-c4cc(OC)c(OC)cc4NC(=O)c4ccsc4)n3)cc1)CC2` the figure was 4.5. Take `COc1cc2c(cc1OC)CN(CCc1ccc(-n3nnc(-c4cc(OC)c(OC)cc4NC(=O)c4ccc5ccccc5n4)n3)cc1)CC2`: the Ratio EC50 in the data set on MES-SA/Dx5 was 2.7. By Papp A→B is commonly meant how fast a substance crosses the layer from the apical side. `O[C@@H](COc1cccc2ncccc12)CN1CCN([C@@H]2c3ccccc3[C@@H]3[C@H](c4ccccc42)C3(F)F)CC1` [ZOSUQUIDAR]: the Papp A→B at 2 h in data set [1] is 1.1 ×10⁻⁶ cm/s.

In general, solubility refers to the dissolved amount per volume that the medium holds. By IC50 is commonly meant the concentration at which inhibition is half-maximal. Take `COc1cc2c(cc1OC)CN(CCc1ccc(NC(=O)c3cc(OC)c(OC)cc3NC(=O)c3cnc4ccccc4c3)cc1)CC2`: the Papp A→B at 2 h in data set [1] is 1.1 ×10⁻⁶ cm/s. This molecule displayed a solubility in data set [2] of 2500 µg/mL (≈ 3870 µM). The IC50 in data set [3] was determined as 183 nM; in data set [4] it was 32.7 nM. Take `COc1cc2c(cc1OC)CN(CCc1ccc(-n3nnc(-c4cc(OC)c(OC)cc4NC(=O)c4cc(=O)c5cc(F)ccc5o4)n3)cc1)CC2`: the Ratio EC50 in the data set on MES-SA/Dx5 came to 39.3. Regarding `COc1cc2c(cc1OC)CN(CCc1ccc(-n3nnc(-c4cc(OC)c(OC)cc4NC(=O)c4cccnc4)n3)cc1)CC2`, in the data set with MES-SA/Dx5, the Ratio EC50 was found to be 3. For `COc1cc2c(cc1OC)CN(CCc1ccc(-n3nnc(-c4cc(OC)c(OC)cc4NC(=O)c4coc5ccccc5c4=O)n3)cc1)CC2`, the Ratio EC50 in the data set with MES-SA/Dx5 came out at 2.1. As for `COc1cc2c(cc1OC)CN(CCc1ccc(-n3nnc(-c4cc(OC)c(OC)cc4NC(=O)c4cncc5ccccc45)n3)cc1)CC2`, the Ratio EC50 with MES-SA/Dx5 worked out at 3.3. Turning to `COc1cc2c(cc1OC)CN(CCc1ccc(-n3nnc(-c4cc(OC)c(OC)cc4NC(=O)c4cc(=O)c5c(OC)cccc5o4)n3)cc1)CC2`, the Ratio EC50 with MES-SA/Dx5 amounted to 49.9. As for `COc1cc2c(cc1OC)CN(CCc1ccc(-n3nnc(-c4cc(OC)c(OC)cc4NC(=O)c4ccoc4)n3)cc1)CC2`, the Ratio EC50 with MES-SA/Dx5 came out at 3.5. `COc1cc2c(cc1OC)CN(CCc1ccc(NC(=O)c3cccc4c(=O)c5cccc(OC)c5[nH]c34)cc1)CC2`: the Papp A→B at 2 h in data set [1] was determined as 0.1 ×10⁻⁶ cm/s. The same molecule came in with a solubility in data set [5] of 0.123 µg/mL (≈ 0.218 µM). On to `COc1cc2c(cc1OC)CN(CCc1ccc(-n3nnc(-c4cc(OC)c(OC)cc4NC(=O)c4cccc5cccnc45)n3)cc1)CC2`, for which the Ratio EC50 in the data set on MES-SA/Dx5 is 4.3. `COc1cc2c(cc1OC)CN(CCc1ccc(-n3nnc(-c4cc(OC)c(OC)cc4NC(=O)c4ccc(F)c(F)c4)n3)cc1)CC2`: in the data set with MES-SA/Dx5, the Ratio EC50 was 3.7. Still for that read-out and setting: as for `COc1cc2c(cc1OC)CN(CCc1ccc(-n3nnc(-c4cc(OC)c(OC)cc4NC(=O)c4ccc5ccccc5c4)n3)cc1)CC2`, the figure is 2.6; as for `COc1cc2c(cc1OC)CN(CCc1ccc(-n3nnc(-c4cc(OC)c(OC)cc4NC(=O)c4cc(=O)c5cc(C)ccc5o4)n3)cc1)CC2`, 73.4; as for `COc1cc2c(cc1OC)CN(CCc1ccc(-n3nnc(-c4cc(OC)c(OC)cc4NC(=O)c4cnc5ccccc5c4)n3)cc1)CC2`, 20.3.

These data come from ChEMBL document CHEMBL4825663 (J Med Chem, 2021).
